Data as given in patent publication US5712367A, “Process for the solubilization of peptides and process for peptide synthesis” (Rhone-Poulenc Chimie, priority 1989, dated 1998).

Columns and labels:
Type in all cases: physicochemical
[1] = Partition coefficient of N-tert-butyloxycarbonylpentaglycine esters between CH2Cl2 and H2O
[2] = Solubility of N-tert-butyloxycarbonylpentaglycine esters (CH3)3COCO(NHCH2CO)5OR in anisole, CH2Cl2 and H2O; settings: for Solubility in g/100 cm^3 CH2 Cl2: solvent CH2Cl2; for Solubility in g/100 cm^3 H2 O: solvent H2O; for Solubility in g/100 cm^3 anisole: solvent anisole
[3] = Measurement of the solubilities of the molecules of formula (L)-seryl-A--L in water; settings: measured in the filtrate after grinding in water for 15 minutes
Method: Ammonia gas was passed into this solution at room temperature. The ammonium chloride precipitate obtained was rapidly filtered off. […] The product obtained after concentration was immediately ground in water for 15 minutes at room temperature and then filtered off.
The solubility of the product of formula (L)-seryl-A--L was measured in the filtrate.

| Structure (SMILES) | Partition coefficient between CH2 Cl2 and H2 O [1] | Solubility in g/100 cm^3 CH2 Cl2 [2] [g/100 cm^3] | Solubility in g/100 cm^3 H2 O [2] [g/100 cm^3] | Solubility in g/100 cm^3 anisole [2] | solubility in water at 25° C. [3] [mg/mL] |
| --- | --- | --- | --- | --- | --- |
| CC(C)(C)OC(=O)NCC(=O)NCC(=O)NCC(=O)NCC(=O)NCC(=O)OCc1ccccc1 [benzyl] | 4.1 | 0.070 | 0.017 | insoluble |  |
| CC(C)(C)OC(=O)NCC(=O)NCC(=O)NCC(=O)NCC(=O)NCC(=O)OCc1cccc(C(=O)OCc2ccc(-c3ccccc3)cc2)c1 [Example R1] | > 1,000 | > 10 | 0.0016 | 5 g/100 cm^3 |  |
| N[C@@H](CO)C(=O)OCc1ccccc1 [L-Serine benzyl ester] |  |  |  |  | > 100 |
| CC(C)(C)OC(=O)NCC(=O)NCC(=O)NCC(=O)NCC(=O)NCC(=O)OCc1cccc(C(=O)OCc2cccc(Oc3ccccc3)c2)c1 [Example R2] | > 2,000 | > 10 | 0.0008 | 5 g/100 cm^3 |  |
| COC(=O)CNC(=O)CNC(=O)CNC(=O)CNC(=O)CNC(=O)OC(C)(C)C [CH3] | 0.66 | 0.33 | 0.50 | insoluble |  |
